Series [1] concerns the target hCA IV (Homo sapiens, UniProt P22748). The experiment in a line: stopped-flow CO2 hydrase assay, hCA IV.
Description: (§2) An Sx.18Mv-R Applied Photophysics (Oxford, UK) stopped-flow instrument was used to assay the catalytic activity of various CA isozymes for CO2 hydration reaction.[21]
In series [2] the target is hCA II (Homo sapiens, UniProt P00918). The experiment in a line: stopped-flow CO2 hydrase assay, hCA II.
Description: as §2
Series [3] addresses hCA I (Homo sapiens, UniProt P00915). As to the kind of experiment: stopped-flow CO2 hydrase assay, hCA I.
Description: as §2
Series [4] in a line: MTT assay, cell viability. To be noted: goat (Capra hircus), primary goat testicular cells, mean ± SEM, read-out: percent cell viability. The series is classed as cell-based. On the procedure: (§1) Goat (Capra hircus) testicular tissues were procured from slaughterhouses of Chandigarh (30°43′ N, 76°12′ E) and around Kurukshetra (29°6′ N, 76°50′ E) in 0.9% normal saline at 4 °C. The testicular cells/tissues were cultured in vitro in media-TCM199 and exposed to 10 µM concentration of given compounds for 6 h in a CO2 incubator with 5% CO2 and 95% humidity at 38 °C temperature.[22]^,[23]
Testicular cells were cultured in 96-well plates. Wells for blank control were without any cells and contained MTT [3-(4,5-dimethylthiazol-2-yl)-2,5-diphenyl-tetrazolium-bromide)], culture medium, and DMSO. The remaining wells were seeded with testicular cells, which were treated with given compounds at 10 µM concentration for 6 h. Post treatment, 10 µL of MTT stock solution was added to each well, and the reaction mixture was incubated for 2 h. After that 200 µL of DMSO was added in each well, followed by shaking for 10 min. Absorbance of reaction mixture was taken at 470 nm.

Series [5] concerns the target hCA IX (Homo sapiens, UniProt Q16790). As to the kind of experiment: stopped-flow CO2 hydrase assay, hCA IX. To be noted: for Selectivity index I/IX: ratio KI hCA I / KI hCA IX; for Selectivity index II/IX: ratio KI hCA II / KI hCA IX.
Description: as §2
The subject of series [6] is testicular cells. The experiment in a line: EB/AO differential staining, apoptosis detection and quantification. The series is classed as cell-based, Goat (Capra hircus). To be noted: 10 µM, 6 h, mean ± SEM; control 7.33 ± 0.33. On the procedure:
as §1
Ethidium bromide and acridine orange (EB/AO) staining was used to determine the cyto-genotoxic nature of given compounds in testicular cells.[25] Briefly, the testicular cell suspension prepared from the treated testicular tissue was mixed with equal volume of EB/AO differential stain on a glass slide and covered with a coverslip. Observation and quantification of apoptotic cells were done with fluorescence microscope (Olympus, Japan) using filters of 500–525 nm. Cells appearing bright green were marked as normal healthy cells, while cells displaying orange-red fluorescence were marked as apoptotic.

Setting [7] is: mean from three assays, stopped-flow technique, errors ± 5–10%.

Where two headings read alike, the source gives them in different places.

What is called Ki is the equilibrium dissociation constant of an inhibitor or competing ligand from its target. A higher Ki goes with lower affinity. The viability is a read-out of living cells in per cent, often relative to untreated cells. As usually defined, the melting point is the temperature of the solid-liquid transition.

Chain of hCA I (P00915 whole entry): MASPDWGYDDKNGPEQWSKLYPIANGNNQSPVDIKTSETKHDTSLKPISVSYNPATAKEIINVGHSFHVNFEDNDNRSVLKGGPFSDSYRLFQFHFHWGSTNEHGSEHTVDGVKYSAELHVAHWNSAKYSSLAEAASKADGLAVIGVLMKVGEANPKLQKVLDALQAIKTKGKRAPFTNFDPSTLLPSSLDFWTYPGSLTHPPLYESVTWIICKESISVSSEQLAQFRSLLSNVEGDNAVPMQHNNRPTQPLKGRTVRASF
Chain of hCA IV (P22748 19-312): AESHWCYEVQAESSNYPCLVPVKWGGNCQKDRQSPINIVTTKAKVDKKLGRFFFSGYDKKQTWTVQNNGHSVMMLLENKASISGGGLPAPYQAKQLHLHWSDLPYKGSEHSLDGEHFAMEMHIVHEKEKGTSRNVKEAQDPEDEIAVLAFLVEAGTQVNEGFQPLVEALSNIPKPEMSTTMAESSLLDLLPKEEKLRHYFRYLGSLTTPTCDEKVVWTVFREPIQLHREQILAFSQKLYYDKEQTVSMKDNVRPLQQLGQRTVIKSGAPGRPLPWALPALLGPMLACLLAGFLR

Turning to `NS(=O)(=O)c1cccc(-n2nnc(S(=O)(=O)c3ccccc3)c2-c2ccc(Cl)cc2)c1` [Compound 10d, 3-(5-(4-chlorophenyl)-4-(phenylsulphonyl)-1H-1,2,3-triazol-1-yl)benzenesulphonamide], the melting point was in the range of 123 to 125 °C. The Ki in series [1] is 91.8 nM. In series [2], the Ki came out at 58.4 nM. Further, the affinity in series [3] (setting [7]) corresponds to a Ki of 696 nM. The viability at 6 h, 10 µM in series [4] came to 32 ± 6.92%. For the same compound, in series [5], the affinity, expressed as Ki, was 16.4 nM; the “Selectivity index I/IX” value is 42.42; the “Selectivity index II/IX” value was determined as 3.56. The same compound had a percent apoptosis in series [6] of 35.00 ± 1.15%.
`COc1ccc(-c2c(S(=O)(=O)c3ccccc3)nnn2-c2cccc(S(N)(=O)=O)c2)cc1Br` [Compound 10h, 3-(5-(3-bromo-4-methoxyphenyl)-4-(phenylsulphonyl)-1H-1,2,3-triazol-1-yl)benzenesulphonamide] registered a melting point of 231 to 233 °C. Besides, the affinity in series [1], expressed as Ki, was 6050 nM. Moreover, the Ki in series [2] came to 649 nM. In series [3], this compound returned a Ki of 8030 nM. Besides, affinity in series [3] (setting [7]) was put at a Ki of 8030 nM. Besides, in series [4], the viability at 6 h, 10 µM stood at 46.7 ± 4.8%. In addition, in series [5], the Ki was 22.8 nM, the “selectivity for hCA IX over hCA I” value is on record as “more than 100 fold”, the “Selectivity index I/IX” value worked out at 352.32 and the “Selectivity index II/IX” value was determined as 28.45. This compound gave a percent apoptosis in series [6] of 29.33 ± 1.45%.

(Values after article PMC9154810, “Selective inhibition of carbonic anhydrase IX by sulphonylated 1,2,3-triazole incorporated benzenesulphonamides capable of inducing apoptosis” (Journal of Enzyme Inhibition and Medicinal Chemistry, 2022).)
